# Measured values taken from publication PMC7918738, “Microtubule Destabilizing Sulfonamides as an Alternative to Taxane-Based Chemotherapy” (International Journal of Molecular Sciences, 2021).
# Assays:
# [1] = system: SKOV3 ovarian carcinoma cells; parameters: method as in PMID 29291446; conditions: read-out: Antiproliferative IC50 SKOV3; cited from earlier work
# [2] = system: microtubule network of MCF7, SKOV3, and HeLa cells; assay: Immunofluorescence confocal microscopy of the microtubule network; type: cell-based, human; conditions: 72 h, 38 600 nM, 45 400 nM
# Experimental: The effect of MDS 38 and 45 on the tubulin cytoskeleton was analyzed in MCF7, SKOV3, and HeLa cells after 72-h treatments. The microtubule network was visualized by confocal microscopy staining α-tubulin in green, and cell nuclei were stained in blue with DAPI (4’,6-diamidino-2-phenylindole) (Figure 4).
# MCF7, SKOV-3, and HeLa cells were grown on glass coverslips coated with poly-L-lysine (12 mm diameter). To reach appropriate cell confluence, coverslips were manipulated in 6-well plates (3 coverslips/well) seeding 3 mL/well of cells in the exponential growth phase at 2 × 10^4 cells/mL. After 24 h incubation, cells were treated with selected compounds and incubated for 72 h. Cells were washed with PBS, fixed with 4% formaldehyde in PBS for 10 min, permeabilized with 0.5% Triton X-100 (Boehringer Mannheim, Ingelheim am Rhein, Germany) in PBS for 10 min and blocked with 10% BSA in PBS for 30 min. Microtubule detection was performed by incubation with anti-α-tubulin mouse monoclonal antibody (1:200 in 3% BSA/PBS) (Sigma-Aldrich) for 1.5 h. After PBS washing, coverslips were incubated with fluorescent secondary antibody Alexa Fluor 488 goat anti-mouse IgG (1:400 in 1% BSA/PBS) (Molecular Probes, Invitrogen, Thermo Fischer Scientific) for 1 h in darkness. […] Cells were analyzed by confocal microscopy using a LEICA SP5 microscope DMI-6000V model coupled to a LEICA LAS AF software computer.
smiles,measurement,setting,value
"COc1ccc(/C=C\c2cc(OC)c(OC)c(OC)c2)cc1O [Combretastatin A-4, reference compound]",IC50,[1],380 nM
COc1ccc(S(=O)(=O)N(Cc2ccccc2)c2cc(OC)c(OC)c(OC)c2)cc1N [Compound 45],Effect on the microtubule network (α-tubulin immunofluorescence),[2],disrupted the microtubule system
CNc1ccc(S(=O)(=O)N(C)c2cc(OC)c(OC)c(OC)c2)cc1 [Compound 38],Effect on the microtubule network (α-tubulin immunofluorescence),[2],disrupted the microtubule system
